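Method: 48-hour compound exposure of cells in 96-well plates, five concentrations, linear interpolation of endpoints. GI50 marks 50% less growth. TGI: total growth inhibition.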
Key:
Experiment in all cases: NCI tumour cell line growth inhibition, 48 h
786-0 renal = system: 786-0 renal
A498 renal = system: A498 renal
A549 NSCLC = system: A549 NSCLC
ACHN renal = system: ACHN renal
BT-549 breast = system: BT-549 breast
CAKI-1 renal = system: CAKI-1 renal
CCRF-CEM leukemia = system: CCRF-CEM leukemia
COLO 205 colon = system: COLO 205 colon
DU-145 prostate = system: DU-145 prostate
EKVX NSCLC = system: EKVX NSCLC
HCC-2998 colon = system: HCC-2998 colon
HCT-116 colon = system: HCT-116 colon
HCT-15 colon = system: HCT-15 colon
HL-60(TB) leukemia = system: HL-60(TB) leukemia
HOP-62 NSCLC = system: HOP-62 NSCLC
HS 578T breast = system: HS 578T breast
HT29 colon = system: HT29 colon
IGROV1 ovarian = system: IGROV1 ovarian
K-562 leukemia = system: K-562 leukemia
KM12 colon = system: KM12 colon
LOX IMVI melanoma = system: LOX IMVI melanoma
M14 melanoma = system: M14 melanoma
MALME-3M melanoma = system: MALME-3M melanoma
MCF7 breast = system: MCF7 breast
MDA-MB-231 breast = system: MDA-MB-231 breast
MDA-MB-435 = system: MDA-MB-435
MOLT-4 leukemia = system: MOLT-4 leukemia
NCI-H226 lung = system: NCI-H226 lung
NCI-H23 lung = system: NCI-H23 lung
NCI-H460 lung = system: NCI-H460 lung
NCI-H522 lung = system: NCI-H522 lung
NCI/ADR-RES ovarian = system: NCI/ADR-RES ovarian
OVCAR-3 ovarian = system: OVCAR-3 ovarian
OVCAR-4 ovarian = system: OVCAR-4 ovarian
OVCAR-5 ovarian = system: OVCAR-5 ovarian
OVCAR-8 ovarian = system: OVCAR-8 ovarian
PC-3 prostate = system: PC-3 prostate
RPMI-8226 leukemia = system: RPMI-8226 leukemia
RXF 393 renal = system: RXF 393 renal
SF-268 CNS = system: SF-268 CNS
SF-295 CNS = system: SF-295 CNS
SF-539 CNS = system: SF-539 CNS
SK-MEL-2 melanoma = system: SK-MEL-2 melanoma
SK-MEL-28 melanoma = system: SK-MEL-28 melanoma
SK-MEL-5 melanoma = system: SK-MEL-5 melanoma
SK-OV-3 ovarian = system: SK-OV-3 ovarian
SN12C renal = system: SN12C renal
SNB-19 CNS = system: SNB-19 CNS
SNB-75 CNS = system: SNB-75 CNS
SR leukemia = system: SR leukemia
SW-620 colon = system: SW-620 colon
T-47D breast = system: T-47D breast
TK-10 renal = system: TK-10 renal
U251 CNS = system: U251 CNS
UACC-257 melanoma = system: UACC-257 melanoma
UACC-62 melanoma = system: UACC-62 melanoma
UO-31 renal = system: UO-31 renal

SMILES: CCC(CC)COC(=O)[C@H](C)N[P@](=O)(OC[C@H]1O[C@@](C#N)(c2ccc3c(N)ncnn23)[C@H](O)[C@@H]1O)Oc1ccccc1
- GI50 (786-0 renal): 6.08 µM
- TGI (786-0 renal): > 100 µM
- GI50 (A498 renal): 0.359 µM
- TGI (A498 renal): 8.57 µM
- GI50 (A549 NSCLC): 47.7 µM
- TGI (A549 NSCLC): > 100 µM
- GI50 (ACHN renal): 18.3 µM
- TGI (ACHN renal): > 100 µM
- GI50 (BT-549 breast): 9.62 µM
- TGI (BT-549 breast): 50.7 µM
- GI50 (CAKI-1 renal): 4.19 µM
- TGI (CAKI-1 renal): > 100 µM
- GI50 (CCRF-CEM leukemia): 3.51 µM
- TGI (CCRF-CEM leukemia): 51.6 µM
- GI50 (COLO 205 colon): 2.46 µM
- TGI (COLO 205 colon): 18.4 µM
- GI50 (DU-145 prostate): 8.44 µM
- TGI (DU-145 prostate): > 100 µM
- GI50 (EKVX NSCLC): 19.1 µM
- TGI (EKVX NSCLC): > 100 µM
- GI50 (HCC-2998 colon): 5.39 µM
- TGI (HCC-2998 colon): > 100 µM
- GI50 (HCT-116 colon): 2.24 µM
- TGI (HCT-116 colon): 30.2 µM
- GI50 (HCT-15 colon): 29.1 µM
- TGI (HCT-15 colon): > 100 µM
- GI50 (HL-60(TB) leukemia): 0.701 µM
- TGI (HL-60(TB) leukemia): 8.62 µM
- GI50 (HOP-62 NSCLC): 6.34 µM
- TGI (HOP-62 NSCLC): > 100 µM
- GI50 (HS 578T breast): 13.2 µM
- TGI (HS 578T breast): > 100 µM
- GI50 (HT29 colon): 6.08 µM
- TGI (HT29 colon): > 100 µM
- GI50 (IGROV1 ovarian): 2.72 µM
- TGI (IGROV1 ovarian): 95.2 µM
- GI50 (K-562 leukemia): 0.597 µM
- TGI (K-562 leukemia): > 100 µM
- GI50 (KM12 colon): 15.3 µM
- TGI (KM12 colon): > 100 µM
- GI50 (LOX IMVI melanoma): 3.58 µM
- TGI (LOX IMVI melanoma): 22.1 µM
- GI50 (M14 melanoma): 1.95 µM
- TGI (M14 melanoma): 12.2 µM
- GI50 (MALME-3M melanoma): 2.08 µM
- TGI (MALME-3M melanoma): 6.91 µM
- GI50 (MCF7 breast): 3.45 µM
- TGI (MCF7 breast): 27.3 µM
- GI50 (MDA-MB-231 breast): 5.46 µM
- TGI (MDA-MB-231 breast): 81.3 µM
- GI50 (MDA-MB-435): 4.53 µM
- TGI (MDA-MB-435): 25.1 µM
- GI50 (MOLT-4 leukemia): 2.79 µM
- TGI (MOLT-4 leukemia): 31.2 µM
- GI50 (NCI-H226 lung): 7.61 µM
- TGI (NCI-H226 lung): 49.1 µM
- GI50 (NCI-H23 lung): 2.59 µM
- TGI (NCI-H23 lung): 12.1 µM
- GI50 (NCI-H460 lung): 4.83 µM
- TGI (NCI-H460 lung): > 100 µM
- GI50 (NCI-H522 lung): 1.29 µM
- TGI (NCI-H522 lung): 27.3 µM
- GI50 (NCI/ADR-RES ovarian): > 100 µM
- TGI (NCI/ADR-RES ovarian): > 100 µM
- GI50 (OVCAR-3 ovarian): 2.35 µM
- TGI (OVCAR-3 ovarian): 18.5 µM
- GI50 (OVCAR-4 ovarian): 3.02 µM
- TGI (OVCAR-4 ovarian): 66 µM
- GI50 (OVCAR-5 ovarian): 40.2 µM
- TGI (OVCAR-5 ovarian): > 100 µM
- GI50 (OVCAR-8 ovarian): 5.91 µM
- TGI (OVCAR-8 ovarian): > 100 µM
- GI50 (PC-3 prostate): 3.58 µM
- TGI (PC-3 prostate): 14.2 µM
- GI50 (RPMI-8226 leukemia): 1.02 µM
- TGI (RPMI-8226 leukemia): 10.6 µM
- GI50 (RXF 393 renal): 2.8 µM
- TGI (RXF 393 renal): 23.3 µM
- GI50 (SF-268 CNS): 4.29 µM
- TGI (SF-268 CNS): > 100 µM
- GI50 (SF-295 CNS): 31 µM
- TGI (SF-295 CNS): > 100 µM
- GI50 (SF-539 CNS): 10.8 µM
- TGI (SF-539 CNS): 37.3 µM
- GI50 (SK-MEL-2 melanoma): 0.97 µM
- TGI (SK-MEL-2 melanoma): 4.51 µM
- GI50 (SK-MEL-28 melanoma): 2.83 µM
- TGI (SK-MEL-28 melanoma): 11.8 µM
- GI50 (SK-MEL-5 melanoma): 5.24 µM
- TGI (SK-MEL-5 melanoma): 17.5 µM
- GI50 (SK-OV-3 ovarian): 2.65 µM
- TGI (SK-OV-3 ovarian): > 100 µM
- GI50 (SN12C renal): 7.73 µM
- TGI (SN12C renal): > 100 µM
- GI50 (SNB-19 CNS): 15.7 µM
- TGI (SNB-19 CNS): > 100 µM
- GI50 (SNB-75 CNS): 2.75 µM
- TGI (SNB-75 CNS): 91.6 µM
- GI50 (SR leukemia): 1 µM
- TGI (SR leukemia): 32.4 µM
- GI50 (SW-620 colon): 1.92 µM
- TGI (SW-620 colon): > 100 µM
- GI50 (T-47D breast): 1.82 µM
- TGI (T-47D breast): > 100 µM
- GI50 (TK-10 renal): 9.85 µM
- TGI (TK-10 renal): > 100 µM
- GI50 (U251 CNS): 15.9 µM
- TGI (U251 CNS): > 100 µM
- GI50 (UACC-257 melanoma): 2.73 µM
- TGI (UACC-257 melanoma): 15.7 µM
- GI50 (UACC-62 melanoma): 2.56 µM
- TGI (UACC-62 melanoma): 11 µM
- GI50 (UO-31 renal): 41.3 µM
- TGI (UO-31 renal): > 100 µM

— PubChem BioAssay (NCI)
